Where a name gives a salt, the structure may show the parent alone.
Molecular target: T1, IRAK4 (Homo sapiens, UniProt Q9NWZ3)
T1 sequence (Q9NWZ3 1-460): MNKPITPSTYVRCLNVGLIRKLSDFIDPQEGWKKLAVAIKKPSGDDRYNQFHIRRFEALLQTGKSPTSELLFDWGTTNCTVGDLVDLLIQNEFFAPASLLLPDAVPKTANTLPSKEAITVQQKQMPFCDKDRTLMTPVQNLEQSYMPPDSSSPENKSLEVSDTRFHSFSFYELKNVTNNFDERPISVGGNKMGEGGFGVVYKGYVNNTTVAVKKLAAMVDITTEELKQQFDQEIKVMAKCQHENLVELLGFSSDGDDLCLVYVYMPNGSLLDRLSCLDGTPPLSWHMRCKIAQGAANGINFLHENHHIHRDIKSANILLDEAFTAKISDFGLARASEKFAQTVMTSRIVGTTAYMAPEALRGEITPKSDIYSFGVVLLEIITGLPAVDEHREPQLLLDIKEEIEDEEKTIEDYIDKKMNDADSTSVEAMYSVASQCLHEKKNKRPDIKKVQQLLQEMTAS
Experiment: ALE THP1 HTRF (IRAK4 degradation in THP1 cells, HTRF with anti-IRAK4 antibodies)
Type: cell-based
Parameters: THP1 Homogeneous Time Resolved Fluorescence (ALE THP1 HTRF) Procedure; endogenous in cells; host or cells: THP1
Details: THP1 cell lysate; for DC50: read-out: ALE THP1 HTRF EC50
Description: Cell culture media was prepared in a tissue culture hood in a sterile environment by adding 10% FBS and 1% Penicillin Streptomycin to 500 mL no phenol red RPMI 1640 media. The media was filtered through a Nalgene Bottle Top Filter and stored at 4° C.
For Homogenous Time Resolved Fluorescence (HTRF) assays, a Cisbio HTRF kit was used, which included: Lysis Buffer #1 4×, Blocking Reagent #3 100×, 20× Antibody 1 (Anti-IRAK4 d2), 20× Antibody 2 (Anti-IRAK4 k), and Detection Buffer.
4× Lysis Buffer was stored at 4° C. For use as 1× Lysis buffer, the 4× solution was diluted with de-ionized water (distilled water, Gibco Cat. #15230279) and 100× Blocking Reagent in a 1:3:0.04 volume ratio.
20× Antibody Solution aliquots were stored at −80° C. and the Detection Buffer was stored at 4° C. For use as a 1× Antibody Solution, the 20× Antibody Solution aliquot was diluted with Detection Buffer in a 1:19 volume ratio.
Cells were lysed at room temperature for 45 min with shaking. A BCA protein assay was performed and normalization was conducted to the desired total protein concentration with 1× lysis buffer. Next, 1× Antibody Solutions were prepared by adding 380 μL Detection Buffer to 20 μL 20× Antibody Solution aliquots and mixing well. 1× Antibody Solutions were combined 1:1 and briefly vortexed. For control wells, 20 μL 1× anti IRAK4-k Antibody Solution was saved. The 384-well plate (ProxiPlate-384 Plus, Perkin Elmer Cat. #6008289) was loaded by adding 4 μL of the mixed Antibody Solution to empty wells using a single channel repeater. Using a multi-channel repeater, 16 μL lysate was added per well, and any bubbles that were formed were popped with 20 μL pipette tips and Kimwipe edges. In column 10, triplicates of each control were prepared. In wells A10, B10, and C10, buffer control was prepared by adding 16 μL Lysis Buffer and 4 μL Detection Buffer. In wells D10, E10, and F10, cryptate control was prepared by adding 16 μL Lysis Buffer, 2 μL Detection Buffer, and 2 μL 1× anti-IRAK4-k Antibody Solution. In wells G10, H10, and I10, a negative control was prepared by adding 16 μL Lysis Buffer and 4 μL mixed Antibody Solution. The plate was sealed with a clear seal and covered with an aluminum lid. The plate was spun down at 800 g for 5 min and incubated in the dark at room temperature overnight. The next day, the plate was spun down at 800 g for 5 min. The samples were analyzed by a plate reader (Envision, PerkinElmer) using the Desnor 384 HTRF program.

SMILES | ALE THP1 HTRF YMIN | DC50
N[C@@H]1C[C@@H](F)CN(c2ccn3ncc(C(=O)Nc4cn([C@H]5CC[C@H](C(=O)N[C@H]6CC[C@@H](c7ccc(C8CCC(=O)NC8=O)cn7)CC6)CC5)nc4C(F)F)c3n2)C1 (stereo partly shown) [Compound P-31] | >95% | > 10000 nM
N[C@@H]1C[C@@H](F)CN(c2ccn3ncc(C(=O)Nc4cn([C@H]5CC[C@H](C(=O)N6CCC7(CC6)CN(c6cccc(C8CCC(=O)NC8=O)c6)C7)CC5)nc4C(F)F)c3n2)C1 (stereo partly shown) [Compound P-17] | 73% | > 10000 nM
N[C@@H]1C[C@@H](F)CN(c2ccn3ncc(C(=O)Nc4cn([C@H]5CC[C@H](C(=O)N[C@H]6CC[C@H](c7ccc(C8CCC(=O)NC8=O)cn7)CC6)CC5)nc4C(F)F)c3n2)C1 (stereo partly shown) [Compound P-33] | 22% | 3 nM
N[C@@H]1C[C@@H](F)CN(c2ccn3ncc(C(=O)Nc4cn([C@H]5CC[C@H](CN6CCC(Nc7ccc(C8CCC(=O)NC8=O)cc7)CC6)CC5)nc4C(F)(F)F)c3n2)C1 (stereo partly drawn) [Compound P-5, N-[1-[4-[[4-[4-(2,6-dioxo-3-piperidyl)anilino]-1-piperidyl]methyl]cyclohexyl]-3-(trifluoromethyl)pyrazol-4-yl]-5-[(3R,5R)-3-amino-5-fluoro-1-piperidyl]pyrazolo[1,5-a]pyrimidine-3-carboxamide hydrochloride] | 45% | 57 nM
N[C@@H]1C[C@@H](F)CN(c2ccn3ncc(C(=O)Nc4cn([C@H]5CC[C@H](CCN6CCC7(CC6)CN(c6ccc(C8CCC(=O)NC8=O)cc6)C7)CC5)nc4C(F)F)c3n2)C1 (stereo partly drawn) [Compound P-23, N-[3-(Difluoromethyl)-1-[4-[2-[2-[4-(2,6-dioxo-3-piperidyl)phenyl]-2,7-diazaspiro[3.5]nonan-7-yl]ethyl]cyclohexyl]pyrazol-4-yl]-5-[(3R,5R)-3-amino-5-fluoro-1-piperidyl]pyrazolo[1,5-a]pyrimidine-3-carboxamide formic acid salt] | 15% | 11 nM
N[C@@H]1C[C@@H](F)CN(c2ccn3ncc(C(=O)Nc4cn(C5CCN(CCN6CCN(c7ccc(C8CCC(=O)NC8=O)cc7)CC6)CC5)nc4C(F)F)c3n2)C1 (stereo partly drawn) [Compound P-27, 5-((3R,5R)-3-Amino-5-fluoropiperidin-1-yl)-N-(3-(difluoromethyl)-1-(1-(2-(4-(4-(2,6-dioxopiperidin-3-yl)phenyl)piperazin-1-yl)ethyl)piperidin-4-yl)-1H-pyrazol-4-yl) pyrazolo[1,5-a]pyrimidine-3-carboxamide trihydrochloride] | 16% | 10 nM
N[C@@H]1C[C@@H](F)CN(c2ccn3ncc(C(=O)Nc4cn([C@H]5CC[C@H](C(=O)NC6CCN(c7ccc(C8CCC(=O)NC8=O)nc7)CC6)CC5)nc4C(F)F)c3n2)C1 (stereo partly shown) [Compound P-25] | 15% | 6 nM
N[C@@H]1C[C@@H](F)CN(c2ccn3ncc(C(=O)Nc4cn([C@H]5CC[C@H](C(=O)N[C@H]6CC[C@@H](c7ccc(C8CCC(=O)NC8=O)nc7)CC6)CC5)nc4C(F)F)c3n2)C1 (stereo partly shown) [Compound P-30] | >95% | > 10000 nM
N[C@@H]1C[C@@H](F)CN(c2ccn3ncc(C(=O)Nc4cn([C@H]5CC[C@H](C(=O)N[C@H]6CC[C@H](c7ccc(C8CCC(=O)NC8=O)nc7)CC6)CC5)nc4C(F)F)c3n2)C1 (stereo partly shown) [Compound P-34] | 13% | 5 nM
CN(CC1CCN(C(=O)[C@H]2CC[C@H](n3cc(NC(=O)c4cnn5ccc(N6C[C@H](N)C[C@@H](F)C6)nc45)c(C(F)F)n3)CC2)CC1)c1cccc(C2CCC(=O)NC2=O)c1 (stereo partly drawn) [Compound P-16, 5-((3R,5R)-3-amino-5-fluoropiperidin-1-yl)-N-(3-(difluoromethyl)-1-((1r,4r)-4-(4-(((3-(2,6-dioxopiperidin-3-yl)phenyl)(methyl)amino)methyl)piperidine-1-carbonyl)cyclohexyl)-1H-pyrazol-4-yl)pyrazolo[1,5-a]pyrimidine-3-carboxamide hydrochloride] | 18% | 28 nM
N[C@@H]1C[C@@H](F)CN(c2ccn3ncc(C(=O)Nc4cn([C@H]5CC[C@H](C(=O)N6CCN(Cc7ccc(C8CCC(=O)NC8=O)cc7)CC6)CC5)nc4C(F)(F)F)c3n2)C1 (stereo partly shown) [Compound P-12] | 57% | 6860 nM
N[C@@H]1C[C@@H](F)CN(c2ccn3ncc(C(=O)Nc4cn([C@H]5CC[C@H](CN6CCN(Cc7ccc(C8CCC(=O)NC8=O)cc7)CC6)CC5)nc4C(F)(F)F)c3n2)C1 (stereo partly shown) [Compound P-13] | 18% | 405 nM
N[C@@H]1C[C@@H](F)CN(c2ccn3ncc(C(=O)Nc4cn([C@H]5CC[C@H](CN6CCC(Nc7cccc(C8CCC(=O)NC8=O)c7)CC6)CC5)nc4C(F)(F)F)c3n2)C1 (stereo partly shown) [Compound P-8] | >95% | > 10000 nM
N[C@@H]1C[C@@H](F)CN(c2ccn3ncc(C(=O)Nc4cn([C@H]5CC[C@H](C(=O)NC6CCN(c7ccc(C8CCC(=O)NC8=O)cc7)CC6)CC5)nc4C(F)F)c3n2)C1 (stereo partly drawn) [Compound P-15, 5-[(3R,5R)-3-amino-5-fluoro-1-piperidyl]-N-[3-(difluoromethyl)-1-[4-[[1-[4-(2,6-dioxo-3-piperidyl)phenyl]-4-piperidyl]carbamoyl]cyclohexyl]pyrazol-4-yl]pyrazolo[1,5-a]pyrimidine-3-carboxamide hydrochloride] | 11% | 4 nM
N[C@@H]1C[C@@H](F)CN(c2ccn3ncc(C(=O)Nc4cn([C@H]5CC[C@H](CN6CCN(C(=O)c7ccc(C8CCC(=O)NC8=O)cc7)CC6)CC5)nc4C(F)(F)F)c3n2)C1 (stereo partly shown) [Compound P-4] | 32% | > 10000 nM
N[C@@H]1C[C@@H](F)CN(c2ccn3ncc(C(=O)Nc4cn([C@H]5CC[C@H](CCN6CCC[C@H](c7ccc(C8CCC(=O)NC8=O)cc7)C6)CC5)nc4C(F)F)c3n2)C1 (stereo partly shown) [Compound P-28] | >95% | > 10000 nM
N[C@@H]1C[C@@H](F)CN(c2ccn3ncc(C(=O)Nc4cn([C@H]5CC[C@H](CCN6CCC7(CC6)CN(c6cccc(C8CCC(=O)NC8=O)c6)C7)CC5)nc4C(F)F)c3n2)C1 (stereo partly shown) [Compound P-26] | 7% | 15 nM
N[C@@H]1C[C@@H](F)CN(c2ccn3ncc(C(=O)Nc4cn([C@H]5CC[C@H](CCN6CCC[C@H](c7ccc(C8CCC(=O)NC8=O)cc7)C6)CC5)nc4C(F)F)c3n2)C1 (stereo in doubt) [Compound P-29] | >95% | > 10000 nM
N[C@@H]1C[C@@H](F)CN(c2ccn3ncc(C(=O)Nc4cn([C@H]5CC[C@H](CCN6CCC(Nc7cccc(C8CCC(=O)NC8=O)c7)CC6)CC5)nc4C(F)F)c3n2)C1 (stereo partly drawn) [Compound P-24, 5-((3R,5R)-3-Amino-5-fluoropiperidin-1-yl)-N-(3-(difluoromethyl)-1-((1r,4r)-4-(2-(4-((3-(2,6-dioxopiperidin-3-yl)phenyl)amino)piperidin-1-yl)ethyl)cyclohexyl)-1H-pyrazol-4-yl) pyrazolo[1,5-a]pyrimidine-3-carboxamide dihydrochloride] | 12% | 12 nM
N[C@@H]1C[C@@H](F)CN(c2ccn3ncc(C(=O)Nc4cn([C@H]5CC[C@H](CCN6CCN(c7ccc(C8CCC(=O)NC8=O)cc7)CC6)CC5)nc4C(F)F)c3n2)C1 (stereo partly drawn) [Compound P-21, N-[3-(Difluoromethyl)-1-[4-[2-[4-[4-(2,6-dioxo-3-piperidyl)phenyl]piperazin-1-ylethyl]cyclohexyl]pyrazol-4-yl]-5-[(3R,5R)-3-amino-5-fluoro-1-piperidyl]pyrazolo[1,5-a]pyrimidine-3-carboxamide formic acid salt] | 15% | 10 nM

From patent US20260317333A1, “Heteroaryl Compounds as Ligand Directed Degraders of IRAK4” (Celgene Corporation, priority 2023, published 2026)
